Test results from patent US10508109B2 (priority 2015, dated 2019).
Where a name gives a salt, the structure may show the parent alone. Read-outs that look alike come from different tables or passages of the source.

Assays:
[1] = test system: A549; assay: Cell-based assay, anti-proliferative activity (Cell Counting Kit-8, 72 hours); conditions: Homo sapiens, read-out: IC50 (μM) A549
Summary of the method: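 IC50 values come from growth read-outs taken after the cells' exposure to each candidate inhibitor. Cells had been plated in 96-well microtiter plates beforehand.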

[2] = test system: CCD-18Co; assay: as above; conditions: Homo sapiens, read-out: IC50 (μM) CCD-18Co
Summary of the method: (§1)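 Cells were seeded in 96-well plates and exposed to the inhibitors for 72 hours, after which growth was measured with Cell Counting Kit-8. IC50 was derived from a serial dilution series of 0, 1.5625, 3.125, 6.25, 12.5, 25, 50 and 100 micro-M.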

[3] = test system: HCT-116; assay: as above; conditions: Homo sapiens, read-out: IC50 (μM) HCT-116
Summary of the method: as §1

[4] = test system: HFL1; assay: as above; conditions: Homo sapiens, read-out: IC50 (μM) HFL1
Summary of the method: as §1

[5] = test system: PC14; assay: as above; conditions: Homo sapiens, read-out: IC50 (μM) PC14
Summary of the method: as §1

[6] = target: SUV39H2 (Homo sapiens (Human), UniProt Q9H5I1); conditions: read-out: IC50 (μM) Suv 39H2 assay
[7] = A549 cells, Cell Counting Kit-8, 72 hours
[8] = CCD-18Co cells, Cell Counting Kit-8, 72 hours
[9] = HCT-116 cells, Cell Counting Kit-8, 72 hours
[10] = HFL1 cells, Cell Counting Kit-8, 72 hours
[11] = PC-14, PC14 cells, Cell Counting Kit-8, 72 hours

Sequence of SUV39H2 (Q9H5I1 whole entry): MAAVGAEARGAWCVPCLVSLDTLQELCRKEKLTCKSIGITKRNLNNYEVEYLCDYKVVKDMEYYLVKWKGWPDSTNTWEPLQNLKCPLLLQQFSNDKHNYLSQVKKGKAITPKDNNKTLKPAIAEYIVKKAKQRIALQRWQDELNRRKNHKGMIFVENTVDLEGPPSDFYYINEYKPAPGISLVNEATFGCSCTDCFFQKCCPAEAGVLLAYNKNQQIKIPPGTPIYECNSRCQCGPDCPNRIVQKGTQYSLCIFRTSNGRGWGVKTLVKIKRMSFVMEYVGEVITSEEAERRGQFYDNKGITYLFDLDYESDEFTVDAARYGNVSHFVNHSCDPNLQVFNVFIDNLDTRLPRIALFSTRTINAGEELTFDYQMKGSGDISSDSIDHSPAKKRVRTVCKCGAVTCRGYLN

SMILES	IC50 ([1]; A549, 72 h)	IC50 ([2]; CCD-18Co, 72 h)	IC50 ([3]; HCT-116, 72 h)	IC50 ([4]; HFL1, 72 h)	IC50 ([5]; PC-14, 72 h)	IC50 ([6]; enzyme assay)	IC50 [1, 7]	IC50 [2, 8]	IC50 [3, 9]	IC50 [4, 10]	IC50 [5, 11]	IC50 [6]
CNc1ccn2cc(-c3cc(Br)c(OC)cc3OC)nc2c1 [Example 11, 2-(5-bromo-2,4-dimethoxyphenyl)-N-methylimidazo[1,2-a]pyridin-7-amine hydrobromide]	1.4 µM	2 µM	1.1 µM	1.7 µM	0.88 µM	0.0094 µM	–	–	–	–	–	–
COc1cc(OC)c(-c2cn3ccc(N4CCOCC4)cc3n2)cc1Cl [Example 12, 4-(2-(5-chloro-2,4-dimethoxyphenyl)imidazo[1,2-a]pyridin-7-yl)morpholine hydrobromide]	–	–	–	–	–	0.012 µM	6.9 µM	9 µM	5.1 µM	6.8 µM	2.9 µM	–
COc1cc(OC)c(-c2cn3ccc(N(C)C)cc3n2)cc1Cl [Example 22, 2-(5-chloro-2,4-dimethoxyphenyl)-N,N-dimethylimidazo[1,2-a]pyridin-7-amine hydrobromide]	–	–	–	–	–	0.00515 µM	1.6 µM	3.6 µM	3.3 µM	1.7 µM	1.6 µM	–
COc1cc(OC)c(-c2cn3ccc(N4CCC(NC(=O)OC(C)(C)C)C4)cc3n2)cc1Cl (stereo not drawn) [Example 23, tert-butyl{1-[2-(5-chloro-2,4-dimethoxyphenyl)imidazo[1,2-a]pyridin-7-yl]pyrrolidin-3-yl}carbamate]	–	–	–	–	–	0.00635 µM	2.4 µM	2.8 µM	1.8 µM	1.2 µM	1.7 µM	–
CNC1CCN(c2ccn3cc(-c4cc(Cl)c(OC)cc4OC)nc3c2)CC1 [Example 24, 1-(2-(5-chloro-2,4-dimethoxyphenyl)imidazo[1,2-a]pyridin-7-yl)-N-methylpiperidin-4-amine hydrochloride]	5.5 µM	11 µM	4.4 µM	2.7 µM	5.7 µM	–	–	–	–	–	–	0.00939 µM
COc1cc(OC)c(-c2cn3ccc(N4CCC[C@@H](N)C4)cc3n2)cc1Cl [Example 30, (R)-1-(5-chloro-2,4-dimethoxyphenyl)imidazo[1,2-a]pyridine-7-yl)piperidin-3-amine dihydrochloride]	–	–	–	–	–	0.009 µM	3.4 µM	3.9 µM	5.1 µM	2 µM	2.3 µM	–
COc1cc(OC)c(-c2cn3ccc(N4CCC(N)C4)cc3n2)cc1Cl (stereo not drawn) [Example 33, 1-[2-(5-chloro-2,4-dimethoxyphenyl)imidazo[1,2-a]pyridin-7-yl]pyrrolidin-3-amine]	–	–	–	–	–	0.00704 µM	3.1 µM	3.2 µM	3.3 µM	2.2 µM	1.7 µM	–
COc1cc(OC)c(-c2cn3ccc(N4CCC(NC(C)=O)C4)cc3n2)cc1Cl (stereo not drawn) [Example 37, N-(1-(2-(5-chloro-2,4-dimethoxyphenyl)imidazo[1,2-a]pyridin-7-yl)pyrrolidin-3-yl)acetamide]	–	–	–	–	–	0.00435 µM	14 µM	11 µM	12 µM	5.4 µM	8.2 µM	–
COc1cc(OC)c(-c2cn3ccc(N4CCC(NS(C)(=O)=O)C4)cc3n2)cc1Cl (stereo not drawn) [Example 40, N-(1-(2-(5-chloro-2,4-dimethoxyphenyl)imidazo[1,2-a]pyridin-7-yl)pyrrolidin-3-yl)methanesulfonamide]	–	–	–	–	–	0.00381 µM	17 µM	15 µM	14 µM	14 µM	6.7 µM	–
COc1cc(OC)c(-c2cn3ccc(N4CCC(CO)CC4)cc3n2)cc1Cl [Example 41, (1-(2-(5-chloro-2,4-dimethoxyphenyl)imidazo[1,2-a]pyridine-7-yl)piperidin-4-yl)methanol]	–	–	–	–	–	0.0054 µM	3.2 µM	3.1 µM	3.5 µM	2.9 µM	2.8 µM	–
COc1cc(OC)c(-c2cn3ccc(N4CCN(CCO)CC4)cc3n2)cc1Cl [Example 43, 2-(4-(2-(5-chloro-2,4-dimethoxyphenyl)imidazo[1,2-a]pyridine-7-yl)piperazin-1-yl)ethanol dihydrochloride]	14 µM	11 µM	14 µM	6.9 µM	9.8 µM	–	–	–	–	–	–	0.00854 µM
COc1cc(OC)c(-c2cn3ccc(N4CC[C@H](NC(=O)OC(C)(C)C)C4)cc3n2)cc1Cl [Example 44, (S)-tert-butyl (1-(2-(5-chloro-2,4-dimethoxyphenyl)imidazo[1,2-a]pyridin-7-yl)-pyrrolidin-3-yl)carbamate]	–	–	–	–	–	0.00982 µM	3 µM	2.2 µM	3.4 µM	1.1 µM	1.6 µM	–
COc1cc(OC)c(-c2cn3ccc(N4CC[C@H](N)C4)cc3n2)cc1Cl [Example 47, (S)-1-(2-(5-Chloro-2,4-dimethoxyphenyl)imidazo[1,2-a]pyridin-7-yl)pyrrolidin-3-amine hydrochloride]	3 µM	3.5 µM	3.4 µM	2 µM	4.5 µM	–	–	–	–	–	–	0.00829 µM
COc1cc(OC)c(-c2cn3ccc(N4CCCC4)cc3n2)cc1C#N [Example 49, 2,4-dimethoxy-5-[7-(pyrrolidin-1-yl)imidazo[1,2-a]pyridin-2-yl]benzonitrile]	1.5 µM	1.1 µM	1.3 µM	0.8 µM	1.3 µM	0.00371 µM	–	–	–	–	–	–
COc1cc(OC)c(-c2cn3ccc(N(C)CCN)cc3n2)cc1Cl [Example 54, N^1-(2-(5-chloro-2,4-dimethoxyphenyl)imidazo[1,2-a]yridine-7-yl)-N1-metylethane-1,2-diamine]	4.2 µM	3.3 µM	3.1 µM	2.5 µM	4.9 µM	0.00585 µM	–	–	–	–	–	–
COc1cc(OC)c(-c2cn3cc(NCCN)c(N4CCCC4)cc3n2)cc1Cl [Example 60, N^1-(2-(5-chloro-2,4-dimethoxyphenyl)-7-(pyrrolidin-1-yl)imidazo[1,2-a]-pyridin-6-yl)ethane-1,2-diamine]	6.8 µM	6 µM	6.8 µM	2 µM	2.6 µM	0.0094 µM	–	–	–	–	–	–
COc1cc(OC)c(-c2cn3ccc(N4CCC(CCNC(=O)OC(C)(C)C)CC4)nc3n2)cc1Cl [Example 61, tert-butyl (2-{1-[2-(5-chloro-2,4-dimethoxyphenyl)imidazo[1,2-a]pyrimidin-7-yl]piperidin-4-yl}-ethyl)carbamate]	–	–	–	–	–	0.00831 µM	4.5 µM	4.3 µM	4.1 µM	3.4 µM	1.7 µM	–
COc1cc(OC)c(-c2cn3ccc(N4CCC(NS(=O)(=O)C5CC5)C4)cc3n2)cc1Cl (stereo not drawn) [Example 63, N-(1-(2-(5-chloro-2,4-dimethoxyphenyl)imidazo[1,2-a]pyridine-7-yl)pyrrolidin-3-yl)cyclopropanesulfonamide]	–	–	–	–	–	0.00395 µM	3 µM	3.8 µM	1.6 µM	1.7 µM	2.1 µM	–
COc1cc(OC)c(-c2cn3ccc(N4CCC(NC(C)=O)C4)nc3n2)cc1Br (stereo not drawn) [Example 66]	–	–	–	–	–	0.00747 µM	25 µM	27 µM	18 µM	26 µM	16 µM	–
COc1cc(OC)c(-c2cn3ccc(N4CCC(NC(=O)OC(C)(C)C)C4)cc3n2)cc1C#N (stereo not drawn) [Example 71, tert-butyl {1-[2-(5-cyano-2,4-dimethoxyphenyl)imidazo[1,2-a]pyridin-7-yl]pyrrolidin-3-yl}carbamate]	–	–	–	–	–	0.0075 µM	2.6 µM	3.2 µM	1.9 µM	1.6 µM	2 µM	–
COc1cc(OC)c(-c2cn3ccc(N4CCC(CCN)CC4)cc3n2)cc1Cl [Example 72, 2-(1-(2-(5-chloro-2,4-dimethoxyphenyl)imidazo[1,2-a]pyridine-7-yl)piperidin-4-yl)ethanamine dihydrochloride]	5.3 µM	7 µM	4.9 µM	3.7 µM	2.5 µM	–	–	–	–	–	–	0.00875 µM
COc1cc(OC)c(-c2cn3cc(NCCN)c(OC)cc3n2)cc1Cl [Example 75, N^1-(2-(5-chloro-2,4-dimethoxyphenyl)-7-methoxyimidazo[1,2-a]-pyridin-6-yl)ethane-1,2-diamine]	–	–	–	–	–	0.00271 µM	6.9 µM	7.2 µM	6.7 µM	3.5 µM	5.7 µM	–
COc1cc(OC)c(-c2cn3cc(NCCN)c(C)cc3n2)cc1Cl [Example 78, N^1-(2-(5-chloro-2,4-dimethoxyphenyl)-7-methylimidazo[1,2-a]pyridin-6-yl)ethane-1,2-diamine]	6.3 µM	5.7 µM	5.6 µM	2.7 µM	6.1 µM	0.00431 µM	–	–	–	–	–	–
